Source: patent publication US20250320206A1, “STAT6 DEGRADERS” (Gilead Sciences, Inc., priority 2024, published 2025)

Key:
[1] = test system: Eotaxin-3 release in human whole blood stimulated with IL-4; experiment: Human Whole Blood Eotaxin-3 Assay (IL-4 stimulated eotaxin-3 release); format: cell-based; settings: IL-4 stimulation, 48 h, values given for compounds with >80% Emax, geometric mean
Experimental: Human Whole Blood Eotaxin-3 Assay
This was a human whole blood assay using recombinant human Interleukin 4 to stimulate the blood and measuring the ability of the test compounds to inhibit eotaxin-3 release. The biological activities of the test compounds have been tested in human whole blood stimulated with IL-4 measuring Eotaxin-3 release. The test compounds were added to 384 well clear flat-bottom plate in a 4-fold serial dilution in triplicates using a liquid handler. Human whole blood stabilized in lithium-heparin tubes was added in a volume of 65 μL per well, resulting in a final DMSO concentration of 0.5%. The plate is incubated for 2 h at 37° C. under 5% CO2/95% air. Subsequently, 5 μL of recombinant human IL-4 (R&D Systems, cat #204-ILB) was added to the wells to a final concentration of […]. The plate was incubated for 48 h at 37° C. under 5% CO2/95% air. The plate was spun down for 10 minutes at 500×g and 20 μL supernatant was harvested and transferred to a 384 well v-bottom plate using a liquid handler and stored at −20° C. until further analysis. 10 μL supernatant was used to measure the level of Eotaxin-3 (CCL26) using Human Eotaxin-3 MSD kit from Mesocsale (Cat #K251UEK-4). The assay was performed according to the manufacture instructions.
The data from the human whole blood eotaxin-3 assay is shown in FIG. 2 for Examples 3u208, 3u246, 3u118, 3u119, 3u120, and 3u74 (where the effect in % is plotted against the test concentration in M on a log scale).

STAT6 = biological target: T1, STAT6 (Homo sapiens, UniProt P42226); experiment: Stat6 Degrader Assay (HiBiT based, HeLa LgBiT clone 4.14); format: cell-based; settings: HeLa LgBiT clone 4.14 HiBiT-STAT6, 4-24 h incubation; values given for compounds with >80% Emax; geometric mean; read-out: STAT6 degradation DC50
T1 construct: These cells express endogenous STAT6; host or cells: HeLa LgBiT clone 4.14
T1 sequence (P42226 1-847): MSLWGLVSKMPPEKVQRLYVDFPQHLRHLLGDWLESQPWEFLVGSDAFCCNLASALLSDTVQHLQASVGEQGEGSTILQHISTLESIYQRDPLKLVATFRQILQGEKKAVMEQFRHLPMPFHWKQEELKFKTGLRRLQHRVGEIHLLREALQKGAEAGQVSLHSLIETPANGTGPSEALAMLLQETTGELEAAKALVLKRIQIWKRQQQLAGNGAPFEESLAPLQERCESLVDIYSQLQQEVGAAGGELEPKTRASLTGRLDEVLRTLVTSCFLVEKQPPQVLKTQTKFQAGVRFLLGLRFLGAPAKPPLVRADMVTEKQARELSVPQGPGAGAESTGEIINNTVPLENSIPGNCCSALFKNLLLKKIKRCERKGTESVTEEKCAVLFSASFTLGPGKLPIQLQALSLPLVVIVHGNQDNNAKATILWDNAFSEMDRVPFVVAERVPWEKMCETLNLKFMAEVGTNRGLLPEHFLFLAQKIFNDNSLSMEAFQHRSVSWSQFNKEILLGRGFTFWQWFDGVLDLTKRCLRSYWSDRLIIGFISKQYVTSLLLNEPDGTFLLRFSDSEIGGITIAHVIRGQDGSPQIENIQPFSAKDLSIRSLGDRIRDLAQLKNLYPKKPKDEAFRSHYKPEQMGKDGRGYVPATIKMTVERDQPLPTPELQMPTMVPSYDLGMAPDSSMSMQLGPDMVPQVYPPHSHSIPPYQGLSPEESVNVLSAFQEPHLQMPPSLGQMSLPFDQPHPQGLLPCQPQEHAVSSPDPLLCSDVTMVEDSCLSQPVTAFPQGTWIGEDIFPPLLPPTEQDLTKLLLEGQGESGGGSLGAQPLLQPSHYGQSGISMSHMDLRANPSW
Summary of the method: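 Luminescence from HiBiT-STAT6 complementing stably expressed LgBiT in HeLa clone 4.14 reports remaining STAT6 protein. Cells (5000/well) exposed to compound for 4-24 h at 37° C; read 0.5 h after Nano-Glo addition. 100% degradation window set with 50 μM terfenadine; percent degradation plotted against concentration.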

EC50 [1] | DC50 (STAT6) | Structure (SMILES)
1 nM | 1.3 nM | Cc1cc(C(=O)N2CCC(CN3CCN(Cc4ccc5c(c4)n(C)c(=O)n5[C@@H]4CCC(=O)NC4=O)C[C@@H]3C)CC2)cc(F)c1C1=CCN(Cc2cc3c(-n4ccc5c(c4=O)CCN5)ccnc3n2C)CC1 (single isomer, unassigned) [Example 3u25]
16.3 nM | 3.4 nM | CNc1ccn(-c2ccnc3c2cc([C@H](C)N2CC=C(c4c(C)cc(C(=O)N5CCC(CN6CCN(Cc7cc8c(cc7F)N(C7CCC(=O)NC7=O)C(=O)C8(C)C)C[C@@H]6C)CC5)cc4F)CC2)n3C)c(=O)c1 (stereo partly drawn) [Example 3u181, 3-(6-fluoro-5-(((S)-4-((1-(3-fluoro-5-methyl-4-(1-((S)-1-(1-methyl-4-(4-(methyl-amino)-2-oxopyridin-1 (2H)-yl)-1H-pyrrolo[2,3-b]pyridin-2-yl)ethyl)-1,2,3,6-tetrahydropyridin-4-yl)-benzoyl)piperidin-4-yl)methyl)-3-methylpiperazin-1-yl)methyl)-3,3-dimethyl-2-oxoindolin-1-yl)-piperidine-2,6-dione]
2.3 nM | 3.3 nM | CNc1ccn(-c2ccnc3c2cc(CN2CC=C(c4c(C)cc(C(=O)N5CCC(CN6CCN(Cc7ccc8c(c7)n(C)c(=O)n8[C@@H]7CCC(=O)NC7=O)CC6)CC5)cc4F)CC2)n3C)c(=O)c1 (single isomer, unassigned) [Example 3u162]
14.6 nM | 4.1 nM | Cc1cc(C(=O)N2CCC(CN3CCN(Cc4ccc5c(c4)C(C)(C)C(=O)N5C4CCC(=O)NC4=O)C[C@@H]3C)CC2)cc(F)c1C1=CCN([C@@H](C)c2cc3c(-n4cc(F)c(N)cc4=O)ccnc3n2C)CC1 (stereo partly drawn) [Example 3u169, 3-(5-(((S)-4-((1-(4-(1-((S)-1-(4-(4-amino-5-fluoro-2-oxopyridin-1 (2H)-yl)-1-methyl-1H-pyrrolo[2,3-b]pyridin-2-yl)ethyl)-1,2,3,6-tetrahydropyridin-4-yl)-3-fluoro-5-methylbenzoyl)piperidin-4-yl)methyl)-3-methylpiperazin-1-yl)methyl)-3,3-dimethyl-2-oxoindolin-1-yl)piperidine-2,6-dione]
2.4 nM | 6.8 nM | CNc1ccn(-c2ccnc3c2cc(CN2CC=C(c4c(F)cc(C(=O)N5CCC(CN6CCN(Cc7ccc8c(c7)n(C7CC7)c(=O)n8[C@@H]7CCC(=O)NC7=O)C[C@@H]6C)CC5)cc4F)CC2)n3C)c(=O)c1 (single isomer, unassigned) [Example 3u73]
1 nM | 0.9 nM | CNc1ccn(-c2ccnc3c2cc(CN2CC=C(c4c(F)cc(C(=O)N5CCC(CN6CCN(Cc7ccc8c(c7)n(C)c(=O)n8C7CCC(=O)NC7=O)C[C@@H]6C)CC5)cc4F)CC2)n3C)c(=O)c1 (stereo partly drawn) [Example 3u1, 3-(5-(((S)-4-((1-(3,5-difluoro-4-(1-((1-methyl-4-(4-(methylamino)-2-oxopyridin-1 (2H)-yl)-1H-pyrrolo[2,3-b]pyridin-2-yl)methyl)-1,2,3,6-tetrahydropyridin-4-yl)benzoyl)piperidin-4-yl)methyl)-3-methylpiperazin-1-yl)methyl)-3-methyl-2-oxo-2,3-dihydro-1H-benzo[d]imidazol-1-yl)piperidine-2,6-dione]
0.3 nM | 0.7 nM | CNc1ccn(-c2ccnc3c2cc(CN2CCC(c4c(F)cc(C(=O)N5CCC(CN6CCN(Cc7ccc8c(c7)n(C)c(=O)n8C7CCC(=O)NC7=O)C[C@@H]6C)CC5)cc4F)CC2)n3C)c(=O)c1 (stereo partly drawn) [Example 3u19, 3-(5-(((S)-4-((1-(3,5-difluoro-4-(1-((1-methyl-4-(4-(methylamino)-2-oxopyridin-1 (2H)-yl)-1H-pyrrolo[2,3-b]pyridin-2-yl)methyl)piperidin-4-yl)benzoyl)piperidin-4-yl)methyl)-3-methyl-piperazin-1-yl)methyl)-3-methyl-2-oxo-2,3-dihydro-1H-benzo[d]imidazol-1-yl)piperidine-2,6-dione]
96.3 nM |  | C[C@@H](c1cc2c(-n3cc(F)c4c(c3=O)CCN4)ccnc2n1C)N1CC=C(c2c(F)cc(C(=O)N3CCC(CN4CCN(c5cc6c(cc5F)n(C5CCC(=O)NC5=O)c(=O)n6C)CC4)CC3)cc2F)CC1 (stereo partly drawn) [Example 3u269, 3-(5-(4-((1-(3,5-difluoro-4-(1-((S)-1-(4-(7-fluoro-4-oxo-1,2,3,4-tetrahydro-5H-pyrrolo[3,2-c]pyridin-5-yl)-1-methyl-1H-pyrrolo[2,3-b]pyridin-2-yl)ethyl)-1,2,3,6-tetrahydropyridin-4-yl)benzoyl)piperidin-4-yl)methyl)piperazin-1-yl)-6-fluoro-3-methyl-2-oxo-2,3-dihydro-1H-benzo[d]-imidazol-1-yl)piperidine-2,6-dione]
26.8 nM |  | CNc1ccn(-c2ccnc3c2cc(CN2CCC(c4c(F)cc(C(=O)N5CCC(CN6CCN(c7cc8c(cc7F)n(C7CCC(=O)NC7=O)c(=O)n8C)CC6)CC5)cc4F)CC2)n3C)c(=O)c1 (stereo not shown) [Example 3u270, 3-(5-(4-((1-(3,5-difluoro-4-(1-((1-methyl-4-(4-(methylamino)-2-oxopyridin-1 (2H)-yl)-1H-pyrrolo[2,3-b]pyridin-2-yl)methyl)piperidin-4-yl)benzoyl)piperidin-4-yl)methyl)piperazin-1-yl)-6-fluoro-3-methyl-2-oxo-2,3-dihydro-1H-benzo[d]imidazol-1-yl)piperidine-2,6-dione]
24.9 nM |  | CNc1cc(=O)n(-c2ccnc3c2cc([C@H](C)N2CC=C(c4c(C)cc(C(=O)N5CCC(CN6CCN(c7cc8c(cc7F)N(C7CCC(=O)NC7=O)C(=O)C87CC7)CC6)CC5)cc4F)CC2)n3C)cc1F (stereo partly drawn) [Example 3u305, 3-(6′-fluoro-5′-(4-((1-(3-fluoro-4-(1-((S)-1-(4-(5-fluoro-4-(methylamino)-2-oxopyridin-1 (2H)-yl)-1-methyl-1H-pyrrolo[2,3-b]pyridin-2-yl)ethyl)-1,2,3,6-tetrahydropyridin-4-yl)-5-methylbenzoyl)piperidin-4-yl)methyl)piperazin-1-yl)-2′-oxospiro[cyclopropane-1,3′-indolin]-1′-yl)piperidine-2,6-dione]
5.6 nM |  | CNc1nc(=O)n(-c2ccnc3c2cc([C@H](C)N2CC=C(c4c(C)cc(C(=O)N5CCC(CN6CCN(c7cc8c(cc7F)n(C7CCC(=O)NC7=O)c(=O)n8C)CC6)CC5)cc4F)CC2)n3C)cc1F (stereo partly drawn) [Example 3u268, 3-(6-fluoro-5-(4-((1-(3-fluoro-4-(1-((S)-1-(4-(5-fluoro-4-(methylamino)-2-oxopyrimidin-1 (2H)-yl)-1-methyl-1H-pyrrolo[2,3-b]pyridin-2-yl)ethyl)-1,2,3,6-tetrahydropyridin-4-yl)-5-methylbenzoyl)piperidin-4-yl)methyl)piperazin-1-yl)-3-methyl-2-oxo-2,3-dihydro-1H-benzo[d]-imidazol-1-yl)piperidine-2,6-dione]
3.3 nM |  | CNc1cc(=O)n(-c2ccnc3c2cc([C@H](C)N2CC=C(c4c(C)cc(C(=O)N5CCC(CN6CCN(c7cccc8c7n(C)c(=O)n8C7CCC(=O)NC7=O)CC6)CC5)cc4F)CC2)n3C)cc1F (stereo partly drawn) [Example 3u271, 3-(4-(4-((1-(3-fluoro-4-(1-((S)-1-(4-(5-fluoro-4-(methylamino)-2-oxopyridin-1 (2H)-yl)-1-methyl-1H-pyrrolo[2,3-b]pyridin-2-yl)ethyl)-1,2,3,6-tetrahydropyridin-4-yl)-5-methylbenzoyl)-piperidin-4-yl)methyl)piperazin-1-yl)-3-methyl-2-oxo-2,3-dihydro-1H-benzo[d]imidazol-1-yl)-piperidine-2,6-dione]
